Laboratory results from article PMC12586182 (Frontiers in Oncology, 2025).

Key:
Assay in all cases: Kinase panel profiling at 1 µmol/L (mobility shift assay, Carna)
Type in all cases: biochemical
Details in all cases: 1 µmol/L of BTK inhibitor
NuaK1 = molecular target: T1, NuaK1 (Homo sapiens, UniProt O60285)
T1 construct: purchased Carna Biosciences
T1 sequence (O60285 1-661): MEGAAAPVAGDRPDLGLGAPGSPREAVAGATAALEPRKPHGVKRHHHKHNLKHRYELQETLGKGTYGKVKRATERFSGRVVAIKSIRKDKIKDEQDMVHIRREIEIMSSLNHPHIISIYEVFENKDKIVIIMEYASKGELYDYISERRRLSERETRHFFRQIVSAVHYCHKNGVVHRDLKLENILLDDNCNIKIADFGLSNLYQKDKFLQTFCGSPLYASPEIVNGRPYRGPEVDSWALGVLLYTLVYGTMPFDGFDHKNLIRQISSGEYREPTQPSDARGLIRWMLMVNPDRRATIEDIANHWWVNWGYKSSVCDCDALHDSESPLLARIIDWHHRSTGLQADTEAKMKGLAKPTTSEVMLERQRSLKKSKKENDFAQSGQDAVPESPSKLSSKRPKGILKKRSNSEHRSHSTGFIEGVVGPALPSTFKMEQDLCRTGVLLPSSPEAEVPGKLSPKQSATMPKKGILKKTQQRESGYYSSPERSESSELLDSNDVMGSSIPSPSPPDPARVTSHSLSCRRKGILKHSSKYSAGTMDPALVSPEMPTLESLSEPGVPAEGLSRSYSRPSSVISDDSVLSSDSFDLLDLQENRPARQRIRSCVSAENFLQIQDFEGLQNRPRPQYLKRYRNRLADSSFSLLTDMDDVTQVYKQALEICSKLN

JAK3 = molecular target: T2, JAK3 (Homo sapiens, UniProt P52333)
T2 construct: purchased Carna Biosciences
T2 sequence (P52333 1-1124): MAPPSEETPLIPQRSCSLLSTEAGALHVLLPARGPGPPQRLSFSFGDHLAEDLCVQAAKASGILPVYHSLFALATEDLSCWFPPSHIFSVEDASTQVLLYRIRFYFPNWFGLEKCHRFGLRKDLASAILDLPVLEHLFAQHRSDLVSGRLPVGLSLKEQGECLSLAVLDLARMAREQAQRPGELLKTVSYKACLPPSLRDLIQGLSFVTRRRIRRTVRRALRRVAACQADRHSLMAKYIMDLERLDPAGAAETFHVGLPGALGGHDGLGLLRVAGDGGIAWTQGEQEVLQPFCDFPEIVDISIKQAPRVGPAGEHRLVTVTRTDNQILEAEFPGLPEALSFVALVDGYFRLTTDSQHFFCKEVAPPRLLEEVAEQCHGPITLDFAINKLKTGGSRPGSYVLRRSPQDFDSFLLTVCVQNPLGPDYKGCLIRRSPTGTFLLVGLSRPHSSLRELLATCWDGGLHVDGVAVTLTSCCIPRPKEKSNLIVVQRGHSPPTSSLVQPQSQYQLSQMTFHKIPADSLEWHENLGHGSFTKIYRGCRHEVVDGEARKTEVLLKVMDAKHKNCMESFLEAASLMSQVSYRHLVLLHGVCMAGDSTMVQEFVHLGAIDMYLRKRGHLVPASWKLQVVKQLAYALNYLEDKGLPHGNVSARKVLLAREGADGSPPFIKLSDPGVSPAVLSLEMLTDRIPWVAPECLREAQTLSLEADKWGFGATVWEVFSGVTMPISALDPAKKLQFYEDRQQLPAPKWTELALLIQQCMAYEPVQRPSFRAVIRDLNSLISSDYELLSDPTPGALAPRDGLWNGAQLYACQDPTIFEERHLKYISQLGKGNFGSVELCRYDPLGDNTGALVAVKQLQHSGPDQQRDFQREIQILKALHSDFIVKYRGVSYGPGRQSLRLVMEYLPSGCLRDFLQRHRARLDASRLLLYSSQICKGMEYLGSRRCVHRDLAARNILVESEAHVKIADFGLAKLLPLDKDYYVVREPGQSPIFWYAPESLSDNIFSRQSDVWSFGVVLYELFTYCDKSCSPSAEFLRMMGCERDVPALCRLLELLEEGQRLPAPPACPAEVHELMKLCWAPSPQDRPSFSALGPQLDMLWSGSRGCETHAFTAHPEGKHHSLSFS

PKCθ = molecular target: T3, PKCθ (Homo sapiens, UniProt Q04759)
T3 construct: purchased Carna Biosciences

DYRK1B = molecular target: T4, DYRK1B (Homo sapiens, UniProt Q9Y463)
T4 construct: purchased Carna Biosciences

p70S6K = molecular target: T5, p70S6K (Homo sapiens, UniProt P23443)
T5 construct: purchased Carna Biosciences

SGK2 = molecular target: T6, SGK2 (Homo sapiens, UniProt Q9HBY8)
T6 construct: purchased Carna Biosciences
T6 sequence (Q9HBY8 1-367): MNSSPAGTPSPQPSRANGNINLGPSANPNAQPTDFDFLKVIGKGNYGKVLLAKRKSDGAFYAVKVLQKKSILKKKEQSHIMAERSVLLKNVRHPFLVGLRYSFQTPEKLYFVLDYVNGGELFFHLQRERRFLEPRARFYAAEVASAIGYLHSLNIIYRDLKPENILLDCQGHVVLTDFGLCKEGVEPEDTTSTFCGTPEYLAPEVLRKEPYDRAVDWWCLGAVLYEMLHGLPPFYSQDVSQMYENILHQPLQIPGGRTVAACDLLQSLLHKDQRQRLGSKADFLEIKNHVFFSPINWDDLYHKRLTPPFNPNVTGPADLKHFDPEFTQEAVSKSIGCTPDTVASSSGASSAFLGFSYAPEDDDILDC

PKCγ = molecular target: T7, PKCγ (Homo sapiens, UniProt P05129)
T7 construct: purchased Carna Biosciences

SRPK1 = molecular target: T8, SRPK1 (Homo sapiens, UniProt Q96SB4)
T8 construct: purchased Carna Biosciences

LCK = molecular target: T9, LCK (Homo sapiens, UniProt P06239)
T9 construct: purchased Carna Biosciences
T9 sequence (P06239 whole entry): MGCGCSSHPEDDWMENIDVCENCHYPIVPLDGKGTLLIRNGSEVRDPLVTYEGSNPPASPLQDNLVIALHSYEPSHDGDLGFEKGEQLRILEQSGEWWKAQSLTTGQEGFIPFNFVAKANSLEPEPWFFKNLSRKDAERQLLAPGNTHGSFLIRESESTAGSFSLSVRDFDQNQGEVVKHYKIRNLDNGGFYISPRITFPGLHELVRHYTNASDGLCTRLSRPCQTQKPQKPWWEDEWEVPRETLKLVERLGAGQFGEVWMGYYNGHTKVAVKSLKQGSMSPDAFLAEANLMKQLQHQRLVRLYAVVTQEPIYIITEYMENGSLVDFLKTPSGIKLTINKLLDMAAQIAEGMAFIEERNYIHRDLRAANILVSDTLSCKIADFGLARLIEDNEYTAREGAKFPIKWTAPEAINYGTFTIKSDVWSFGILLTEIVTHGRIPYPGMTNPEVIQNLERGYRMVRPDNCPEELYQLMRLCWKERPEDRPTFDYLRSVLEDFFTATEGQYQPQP

T5 sequence (P23443 whole entry): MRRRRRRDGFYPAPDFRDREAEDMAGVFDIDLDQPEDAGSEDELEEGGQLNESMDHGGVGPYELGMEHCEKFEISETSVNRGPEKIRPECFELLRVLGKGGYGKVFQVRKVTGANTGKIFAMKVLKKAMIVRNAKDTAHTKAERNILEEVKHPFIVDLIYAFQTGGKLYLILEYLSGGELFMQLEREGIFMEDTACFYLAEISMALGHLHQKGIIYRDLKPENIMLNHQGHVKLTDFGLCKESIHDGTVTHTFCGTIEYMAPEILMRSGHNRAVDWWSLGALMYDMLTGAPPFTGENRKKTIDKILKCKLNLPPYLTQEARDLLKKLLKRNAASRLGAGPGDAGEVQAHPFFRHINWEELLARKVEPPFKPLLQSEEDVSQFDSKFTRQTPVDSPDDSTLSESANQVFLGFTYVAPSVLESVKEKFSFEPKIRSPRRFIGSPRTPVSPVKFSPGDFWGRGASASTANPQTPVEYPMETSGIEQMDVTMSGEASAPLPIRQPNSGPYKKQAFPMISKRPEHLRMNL
T8 sequence (Q96SB4 whole entry): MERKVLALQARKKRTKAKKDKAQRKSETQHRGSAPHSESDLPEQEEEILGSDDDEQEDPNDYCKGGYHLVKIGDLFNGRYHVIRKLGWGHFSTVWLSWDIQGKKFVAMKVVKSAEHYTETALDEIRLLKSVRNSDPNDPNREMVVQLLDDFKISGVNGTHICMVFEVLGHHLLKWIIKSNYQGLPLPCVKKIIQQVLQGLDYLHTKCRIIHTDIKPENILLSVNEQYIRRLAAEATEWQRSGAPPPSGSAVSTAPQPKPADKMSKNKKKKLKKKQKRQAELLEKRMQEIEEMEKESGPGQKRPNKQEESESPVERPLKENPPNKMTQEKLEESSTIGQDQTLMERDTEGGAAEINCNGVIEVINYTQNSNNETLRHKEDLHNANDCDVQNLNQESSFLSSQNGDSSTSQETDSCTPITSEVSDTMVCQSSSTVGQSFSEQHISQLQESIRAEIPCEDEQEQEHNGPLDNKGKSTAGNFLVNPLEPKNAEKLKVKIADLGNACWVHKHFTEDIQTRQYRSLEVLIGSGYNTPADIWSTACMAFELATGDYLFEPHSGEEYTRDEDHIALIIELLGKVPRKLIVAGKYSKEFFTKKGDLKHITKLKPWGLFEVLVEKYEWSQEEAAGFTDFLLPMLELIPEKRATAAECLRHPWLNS
T4 sequence (Q9Y463 whole entry): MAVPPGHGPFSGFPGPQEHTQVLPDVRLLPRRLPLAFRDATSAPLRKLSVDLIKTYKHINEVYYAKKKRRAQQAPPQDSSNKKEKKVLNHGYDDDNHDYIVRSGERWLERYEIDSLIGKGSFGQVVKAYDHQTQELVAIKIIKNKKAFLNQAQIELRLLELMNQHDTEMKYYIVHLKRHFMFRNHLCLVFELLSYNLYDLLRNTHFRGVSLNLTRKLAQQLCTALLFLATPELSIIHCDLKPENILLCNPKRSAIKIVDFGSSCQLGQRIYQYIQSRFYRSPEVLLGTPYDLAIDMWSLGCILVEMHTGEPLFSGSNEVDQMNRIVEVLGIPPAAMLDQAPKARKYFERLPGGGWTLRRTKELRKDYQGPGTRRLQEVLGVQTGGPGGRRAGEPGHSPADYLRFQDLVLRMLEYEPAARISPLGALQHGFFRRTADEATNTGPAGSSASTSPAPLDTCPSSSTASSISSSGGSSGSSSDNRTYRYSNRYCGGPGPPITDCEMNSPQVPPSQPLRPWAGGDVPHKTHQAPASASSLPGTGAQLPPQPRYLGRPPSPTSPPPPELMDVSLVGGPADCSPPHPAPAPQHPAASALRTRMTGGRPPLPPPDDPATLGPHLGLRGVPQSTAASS
T3 sequence (Q04759 whole entry): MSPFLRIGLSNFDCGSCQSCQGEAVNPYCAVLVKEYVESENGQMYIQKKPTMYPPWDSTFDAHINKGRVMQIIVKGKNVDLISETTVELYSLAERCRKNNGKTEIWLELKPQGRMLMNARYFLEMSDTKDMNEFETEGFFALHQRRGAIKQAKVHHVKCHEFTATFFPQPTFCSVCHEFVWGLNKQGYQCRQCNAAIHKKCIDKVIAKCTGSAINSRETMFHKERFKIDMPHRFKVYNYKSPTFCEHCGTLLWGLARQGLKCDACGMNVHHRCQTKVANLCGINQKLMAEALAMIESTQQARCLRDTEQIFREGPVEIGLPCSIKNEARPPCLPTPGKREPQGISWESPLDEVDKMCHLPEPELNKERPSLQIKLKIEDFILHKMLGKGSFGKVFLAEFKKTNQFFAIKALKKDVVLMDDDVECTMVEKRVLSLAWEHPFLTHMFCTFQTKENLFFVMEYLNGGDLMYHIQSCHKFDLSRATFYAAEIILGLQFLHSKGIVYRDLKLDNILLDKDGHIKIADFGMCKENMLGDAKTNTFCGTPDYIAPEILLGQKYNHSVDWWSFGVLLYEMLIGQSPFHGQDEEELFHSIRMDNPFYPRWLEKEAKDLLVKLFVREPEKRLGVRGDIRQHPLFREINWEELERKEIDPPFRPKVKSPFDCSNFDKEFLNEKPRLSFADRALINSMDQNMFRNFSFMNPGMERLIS

SMILES	Percentage inhibition of kinase enzyme activity (NuaK1) [%]	Percentage inhibition of kinase enzyme activity (JAK3) [%]	Percentage inhibition of kinase enzyme activity (PKCθ) [%]	Percentage inhibition of kinase enzyme activity (DYRK1B) [%]	Percentage inhibition of kinase enzyme activity (p70S6K) [%]	Percentage inhibition of kinase enzyme activity (SGK2) [%]	Percentage inhibition of kinase enzyme activity (PKCγ) [%]	Percentage inhibition of kinase enzyme activity (SRPK1) [%]	Percentage inhibition of kinase enzyme activity (LCK) [%]
CC#CC(=O)N1CCC[C@H]1c1nc(-c2ccc(C(=O)Nc3ccccn3)cc2)c2c(N)nccn12 [acalabrutinib]	-3.51	-1.00	-8.13	-19.49	-13.73	-19.42	-7.43	-4.73	6.84
C=CC(=O)N1CCC[C@@H](n2nc(-c3ccc(Oc4ccccc4)cc3)c3c(N)ncnc32)C1 [ibrutinib]	6.70	90.92	-1.13	1.91	19.28	–	0.80	1.20	100.25
O=C(c1ccc(Oc2ccccc2)cc1Cl)c1c[nH]c2ncnc(N[C@@H]3CC[C@@H](CO)OC3)c12 [nemtabrutinib]	3.95	97.48	-0.21	-3.59	4.51	2.52	0.06	6.73	70.86
COc1ccc(F)cc1C(=O)NCc1ccc(-c2nn([C@@H](C)C(F)(F)F)c(N)c2C(N)=O)cc1 [pirtobrutinib]	4.02	-1.25	4.94	12.04	-0.48	-0.16	3.04	8.97	30.64
C=CC(=O)N1CCC([C@@H]2CCNc3c(C(N)=O)c(-c4ccc(Oc5ccccc5)cc4)nn32)CC1 [zanubrutinib]	–	10.83	–	–	–	–	–	–	0.21
